Measured values reported in article PMC6057649, “Development of NanoLuc-PEST expressing Leishmania mexicana as a new drug discovery tool for axenic- and intramacrophage-based assays” (PLoS Neglected Tropical Diseases, 2018).
pEC50: −log10 of the molar value. Like-named read-outs stand apart in the source and are kept apart here. Peptide text beside a SMILES is read from it. * marks the point of attachment. Cbz = O=C(OCc1ccccc1)*

Experiments:
[1] = tested on: NanoLuc-PEST expressing L. mexicana axenic amastigotes; assay: Fluorescence-based (AlamarBlue) viability assay, NanoLuc-PEST axenic amastigotes; settings: Leishmania mexicana, 72 h
[2] = tested on: NanoLuc-PEST expressing L. mexicana axenic amastigotes; assay: microbe, parasite or virus in culture; format: cell-based; settings: for viability at 2 µM / viability at 10 µM / Relative Bioluminescence (%): 72 hours, relative to DMSO only control, n = 4; for viability at 2 µM / viability at 10 µM: read-out: Relative Bioluminescence (%); for EC90: read-out: EC90 against amastigotes, Axenic
[3] = tested on: L. mexicana axenic amastigotes; design: method as in PMID 9087496; settings: L. mexicana axenic amastigotes ref 47; read-out: Previous EC50, axenic amastigotes; cited from earlier work
[4] = tested on: L. mexicana NanoLuc-PEST intramacrophage amastigotes; assay: Bioluminescence-based intramacrophage assay in THP-1 infection model; format: cell-based; settings: for pEC50: read-out: EC50 against amastigotes, Intramacrophage; for EC90: read-out: EC90 against amastigotes, Intramacrophage
[5] = tested on: NanoLuc-PEST-expressing L. mexicana promastigotes and axenic amastigotes; assay: Cycloheximide and proteasome (MG-132) assays on luciferase signal; format: cell-based; settings: 5 μM, 6 hours
Method: Detection of NanoLuc and NanoLuc-PEST enzymes was performed using the lytic Nano-Glo Assay (Promega), according to the manufacturer’s instructions. Detection of PRE9 was performed using either the Firefly Luciferase Glow Assay (Pierce), or the Bright-Glow Assay (Promega). Bioluminescence was measured using the Promega GloMax Multi Detection System. All data was normalised by subtracting bioluminescence values for the untransformed, parental line, and all assays done in triplicate.
Cycloheximide assays were performed over 8 hours. Cells were seeded to a cell density of 5 x10^5 cells/well (100 μL/well). Cycloheximide (Sigma) was added to each well to a final concentration of 100 μM and incubated with cells for a range of time points between 0 and 8 hours. Bioluminescence was measured as described above, and the half-life of each luciferase was calculated by one phase decay non-linear regression (GraphPad Prism 6.0). Proteosome assays were performed using the method above with the addition of 5 μM MG-132 (Sigma) for 6 hours. Statistical significance was determined using a paired, two-tailed T-test (GraphPad Prism 6.0).

[6] = tested on: THP-1 cell line; assay: Macrophage toxicity assay (PrestoBlue); settings: read-out: THP1 EC50, PMA-differentiated THP-1 macrophages, 72 hours
[7] = tested on: HepG2; settings: ref MMV Pathogen Box website, cited from earlier work; for CC50: read-out: HepG2 CC50
[8] = tested on: L. donovani intramacrophage amastigotes; settings: cited from earlier work
[9] = tested on: L. donovani axenic amastigotes; settings: cited from earlier work
[10] = tested on: MRC5; design: method as in MMV Pathogen Box website; settings: ref MMV Pathogen Box website; cited from earlier work
[11] = Leishmania mexicana, 2 µM compound
[12] = Leishmania mexicana, 10 µM compound
[13] = Leishmania mexicana, read-out: EC50 against amastigotes, Axenic
[14] = hit compounds from the axenic amastigote screen, S3 Table, read-out: EC50, Axenic Amastigotes
[15] = read-out: EC50 against amastigotes, Axenic
[16] = THP-1 infection model, bioluminescence

C[C@@H]1[C@H](O)[C@@H](C)/C=C/C=C/C=C/C=C/C=C/C=C/C=C/[C@H](O[C@@H]2O[C@H](C)[C@@H](O)[C@H](N)[C@@H]2O)C[C@@H]2O[C@](O)(C[C@@H](O)C[C@@H](O)[C@H](O)CC[C@@H](O)C[C@@H](O)CC(=O)O[C@H]1C)C[C@H](O)[C@H]2C(=O)O [Amphotericin B, reference compound]
pEC50 [1]: 6.57
pEC50 ([2]; Leishmania mexicana, 72 h, read-out: EC50): 6.70
viability at 2 µM [2, 11]: 58.3%
viability at 10 µM [2, 12]: 48.4%
pEC50 ([2]; Leishmania mexicana, axenic amastigotes, span over parental and transgenic line, both bioluminescence- and fluorescence-based assays, read-out: EC50 values from the parental and transgenic line): 6.57 to 6.70
pEC50 [2, 13]: 6.70
EC90 ([2]; Leishmania mexicana): 279 nM
pEC50 [3]: 6.52
decrease of bioluminescent signal [4]: ≥ 99%
pEC50 ([4]; Leishmania mexicana, THP-1): 6.98
EC90 ([4]; Leishmania mexicana, THP-1): 185 nM

CC(C)C[C@@H](C=O)NC(=O)[C@H](CC(C)C)NC(=O)[C@H](CC(C)C)NC(=O)OCc1ccccc1 [MG-132] (Cbz-Leu-Leu-Leu-aldehyde)
bioluminescence relative to the DMSO control [5]: statistically significant increase

Cc1ccc(NC(=O)c2nc[nH]c2C(=O)Nc2nc3ccccc3[nH]2)c(C)c1 [MMV011903]
pEC50 [6]: < 4.30
Relative Bioluminescence (%) ([2]; 2 µM compound): -0.43%
Relative Bioluminescence (%) ([2]; 10 µM compound): -1.14%
pEC50 [2, 14]: 6.74
pEC50 [2, 15]: 6.72
EC90 [2]: 320 nM
CC50 [7]: > 10000 nM
HepG2 CC20 [7]: 8400 nM
pEC50 [4, 16]: 5.70
EC90 [4, 16]: 2290 nM

CCN(CC)S(=O)(=O)c1ccc(C(=O)Nc2cc(C)nn2-c2nc(C)c(C)c(=O)[nH]2)cc1 [MMV595321]
pEC50 [6]: < 4.30
Relative Bioluminescence (%) ([2]; 2 µM compound): -4.54%
Relative Bioluminescence (%) ([2]; 10 µM compound): -3.10%
pEC50 [2, 14]: 6.82
pEC50 [2, 15]: 6.82
EC90 [2]: 357 nM
pEC50 [4, 16]: 5.28
EC90 [4, 16]: 11200 nM
pEC50 ([8]; value in brackets ref 49, 53, read-out: Previous EC50, intramacrophage amastigotes): 5.50
pEC50 ([9]; value in brackets ref 49, 53, read-out: Previous EC50, axenic amastigotes): 6.30

O=C(Nc1ccc2c(c1)B(O)OC2)c1ccccc1C(F)(F)F [MMV652003]
Relative Bioluminescence (%) ([2]; 2 µM compound): -1.53%
Relative Bioluminescence (%) ([2]; 10 µM compound): -1.54%
pEC50 [2, 14]: 7.15
pEC50 [2, 15]: 7.11
EC90 [2]: 104 nM
CC50 [10]: > 32000 nM
HepG2 CC20 [7]: 400 nM
pEC50 [4, 16]: 5.44
EC90 [4, 16]: 10700 nM

C[C@]1(COc2ccc(N3CCC(Oc4ccc(OC(F)(F)F)cc4)CC3)cc2)Cn2cc([N+](=O)[O-])nc2O1 [MMV688262, Delamanid, reference compound]
viability at 2 µM [2, 11]: -4.37%
viability at 10 µM [2, 12]: -2.71%
pEC50 ([2]; Leishmania mexicana, hit compounds from the axenic amastigote screen, S3 Table, read-out: EC50, Axenic Amastigotes): 7.52
pEC50 [2, 13]: 7.48
EC90 ([2]; Leishmania mexicana): 112 nM
CC50 [7]: 72500 nM
pEC50 ([4]; Leishmania mexicana, THP-1): 5.75
EC90 ([4]; Leishmania mexicana, THP-1): 25100 nM
pEC50 ([8]; value in brackets ref 54, read-out: Previous EC50, intramacrophage amastigotes): 6.53 to 7.06
pEC50 ([9]; value in brackets ref 54, read-out: Previous EC50, axenic amastigotes): 8.30

Cc1ccc(S(=O)(=O)Nc2ccc(CN3CCN(C(=O)c4cccc(C#N)c4)CC3)cc2)cc1 [MMV689028]
Relative Bioluminescence (%) ([2]; 2 µM compound): 54.14%
Relative Bioluminescence (%) ([2]; 10 µM compound): 72.62%

COc1ccc(S(=O)(=O)Nc2ccc(CN3CCN(C(=O)c4cccc(C#N)c4)CC3)cc2)cc1 [MMV689029]
Relative Bioluminescence (%) ([2]; 2 µM compound): 67.41%
Relative Bioluminescence (%) ([2]; 10 µM compound): 57.59%

Clc1ccc(CN2CCN(C3=NCCN3)CC2)cc1Cl [MMV689060]
Relative Bioluminescence (%) ([2]; 2 µM compound): 99.56%
Relative Bioluminescence (%) ([2]; 10 µM compound): 112.63%

CC(=O)Nc1ccc(-c2noc(CC3CCCN(Cc4cccc(F)c4C)C3)n2)cc1 (stereo not drawn) [MMV689061]
Relative Bioluminescence (%) ([2]; 2 µM compound): 77.60%
Relative Bioluminescence (%) ([2]; 10 µM compound): 95.91%

FC(F)(F)c1ccc(N(c2cccnc2)C2CCN(c3ccc(C(F)(F)F)cn3)CC2)cc1 [MMV689243]
Relative Bioluminescence (%) ([2]; 2 µM compound): 34.53%
Relative Bioluminescence (%) ([2]; 10 µM compound): 8.50%

O=C([C@@H](c1ccc(Cl)cc1)c1cccnc1)N1CCN(c2ccc(C(F)(F)F)cc2)CC1 [MMV689244]
Relative Bioluminescence (%) ([2]; 2 µM compound): 23.97%
Relative Bioluminescence (%) ([2]; 10 µM compound): 0.66%

Nc1ncnc2c1ncn2C[C@@H](O)[C@@H](O)C(=O)O [MMV689255, D-Eritadenine]
Relative Bioluminescence (%) ([2]; 2 µM compound): 68.65%
Relative Bioluminescence (%) ([2]; 10 µM compound): 73.04%

CC(c1cc(Cl)cc(Cl)c1)N(C)c1ncc2c(N)nc(N)nc2n1 (stereo not drawn) [MMV689437]
Relative Bioluminescence (%) ([2]; 2 µM compound): 37.21%
Relative Bioluminescence (%) ([2]; 10 µM compound): 1.17%

CNc1cc(C)nc(C2CN(C(=O)c3n[nH]c4ccccc34)CCO2)c1 (stereo not drawn) [MMV689709]
Relative Bioluminescence (%) ([2]; 2 µM compound): 77.39%
Relative Bioluminescence (%) ([2]; 10 µM compound): 68.10%
